Assay results reported in a melting point compilation (Tetko et al.).

With `Cc1csc(C)c1C` the melting point was -26.2 °C.
In the case of `CC(C)NC(=O)N1CC(=O)N(c2cc(Cl)cc(Cl)c2)C1=O`, the melting point is reported as 136 °C.
With `C=C1C(C(=O)O)C1C(=O)O` (centres undefined) the melting point was 197 to 201 °C.
`Cn1ccc2cc([N+](=O)[O-])ccc21` gave a melting point of 167 to 169 °C.
Work on `CC(Cc1ccccc1)NC(C#N)c1ccccc1` (centres undefined) yielded a melting point of 85 °C.
For `CNC(=O)CC#N`, the melting point was 82 to 84 °C.
With `CN(C)CC(=O)N1c2ccccc2Sc2ccccc21` the melting point was 144 °C.
For `Cn1nnc2cc(CBr)ccc21`, the melting point was 120 °C.
Work on `O=c1c(O)c(-c2ccc(O)c(O)c2)oc2cc(O)ccc12` yielded a melting point of 330 °C.
For `Cc1ccc(C(c2ccc(C)o2)c2ccccc2[N+](=O)[O-])o1`, the melting point was 80 °C.
Compound `O=[N+]([O-])c1ccc(Oc2c(Cl)cc(Cl)cc2Cl)cc1` has a melting point of 106 °C.
With `O=Cc1cc(Br)ccc1Br` the melting point was 95 °C.
With `c1ccc2c(c1)ccc1c2ccc2c3ccccc3ccc21` the melting point was 368 °C.
Compound `CCC1OC(=O)C(O)=C1C` (centres undefined) has a melting point of 27 to 30 °C.
`ON=C(c1cccs1)c1cccs1` gave a melting point of 134 to 136 °C.
`OC1OCCOC1O` (centres undefined) showed a melting point of 101 °C.
With `CC1(C)SC2C(N3C(=O)C(c4ccccc4)NC3(C)C)C(=O)N2C1C(=O)O` (centres undefined) the melting point was 190 °C.
`CC1C=Cn2c(cc3ccccc3c2=O)C1` (centres undefined) showed a melting point of 89 °C.
With `Clc1ccc2cccc(Cl)c2c1` the melting point was 63.5 °C.
In the case of `Cc1cc(-c2ccccc2)nc2cc3nc(-c4ccccc4)cc(C)c3cc12`, the melting point is reported as 284 to 285 °C.
Work on `Nc1ncnc2c1ncn2C1(CO)OC(CO)C(O)C1O` (centres undefined) yielded a melting point of 212 °C.
Work on `Cc1ccc2cc3nc(C)ccc3cc2n1` yielded a melting point of 237 to 238 °C.
`CN(C)c1ccc(C=C/C(=N\Nc2ccccc2)c2ccccc2)cc1` gave a melting point of 127 to 128 °C.
`OCCN1CCN(c2nccc(C(F)(F)F)n2)CC1` showed a melting point of 70 to 71 °C.
`O=C(O)C(O)c1ccc(F)cc1F` (centres undefined) showed a melting point of 123 °C.
`c1ccc(C2=NN(c3ccccc3)C2)cc1` showed a melting point of 138 °C.
Compound `O=C(O)C=Cc1c(F)c(F)c(F)c(F)c1F` has a melting point of 153 °C.
With `O=C(O)c1ccc(N2CCOCC2)nc1` the melting point was 256 to 257 °C.
With `CCCCNCC` the melting point was -78 °C.
For `COC(=O)[C@]1(O)CC2=C(c3c1cc(OC)nc3Cl)N(C)CCC2`, the melting point was 153 °C.
For `CSc1sc(C(=O)O)c(-c2cccc(C(F)(F)F)c2)c1C#N`, the melting point was 232 to 234 °C.
For `CNC(=S)NCc1ccccc1`, the melting point was 75 °C.
Compound `COC(=O)c1ccccc1OCc1ccccc1` has a melting point of 47 °C.
In the case of `CCOC(=O)N1CCc2cc(OC)c(OC)cc2C1C#N` (centres undefined), the melting point is reported as 110 to 112 °C.
With `Cc1cc(C)c2c(c1)OC(=O)C2` the melting point was 105 °C.
`CN(C)C=Nc1c(I)cc(I)c(CCC(=O)O)c1I` gave a melting point of 168 °C.
Work on `CCN(CC)C(=O)c1ccccc1C(=O)N(CC)CC` yielded a melting point of 36 °C.
With `O=C1OC2(c3cc(Cl)c(O)cc3Oc3cc(O)c(Cl)cc32)c2ccccc21` the melting point was 280 °C.
Compound `Cc1ccc(Cl)c(Nc2ccccc2C(=O)O)c1Cl` has a melting point of 257 °C.
In the case of `CCOc1ccc(NS(=O)(=O)c2ccc(N)cc2)nn1`, the melting point is reported as 183 °C.
Compound `OC(c1ccc(F)cc1)c1ccc(F)cc1` has a melting point of 47 °C.
`Cc1nc(/C(C#N)=C/c2ccc(N(C)C)cc2)sc1/N=N/c1ccc(F)cc1` showed a melting point of 149 °C.
With `Cc1nn(C)c(Cl)c1N=Nc1ccccc1` the melting point was 44 to 46 °C.
Compound `N#Cc1ccc(-c2cccs2)s1` has a melting point of 100 °C.
Work on `CC(=O)N(CC(O)CO)c1c(I)c(C(=O)NCC(O)CO)c(I)c(C(=O)NCC(O)CO)c1I` (centres undefined) yielded a melting point of 177 °C.
For `Cn1ncc(N2CCOCC2)c(Cl)c1=O`, the melting point was 131 to 133 °C.
Compound `Cc1ccc(CS(=O)(=O)Cl)cc1` has a melting point of 80 to 85 °C.
`Cc1ccc(O)c(C)n1` showed a melting point of 210 to 212 °C.
In the case of `O=c1[nH]c(-c2ccccc2)cc2ccncc12`, the melting point is reported as 239 °C.
Compound `Clc1nc2ccccc2s1` has a melting point of 31.5 °C.
Work on `Cc1nc(-c2ccc3c(c2)CCO3)sc1C(=O)O` yielded a melting point of 221 to 225 °C.
`O=C=Nc1ccc(Cl)c([N+](=O)[O-])c1` showed a melting point of 66 °C.
`COCC(=O)N(c1c(C)cccc1C)C(C)C(=O)OC` (centres undefined) gave a melting point of 71 °C.
Work on `c1ccc(SCSc2ccccc2)cc1` yielded a melting point of 37 °C.
For `CCCC(=O)Oc1c[nH]c2cc(Cl)c(Br)cc12`, the melting point was 96 to 100 °C.
Work on `COc1ccc(Br)cc1C#N` yielded a melting point of 91 °C.
In the case of `O=Cc1cccc2cccnc12`, the melting point is reported as 93 °C.
Work on `CC(=O)C1CCC2C3C=CC4=CC(=O)CCC4(C)C3CCC12C` (centres undefined) yielded a melting point of 170 °C.
`CNc1ccc(OC)cc1` showed a melting point of 33 to 36 °C.
In the case of `N#CCC(N)=C(C#N)C#N`, the melting point is reported as 172 °C.
Compound `CCC(CC)COC(=O)CCCCCCCC(=O)OCC(CC)CC` has a melting point of -45 °C.
Work on `COc1cc2noc(-c3ccc(C)o3)c2cc1OC` yielded a melting point of 146 °C.
For `NC1CONC1=O` (centres undefined), the melting point was 156 °C.
Work on `CC(=O)Nc1ccccc1/C=C\c1ccccc1` yielded a melting point of 115 to 117 °C.
Compound `CCC(C)Nc1c([N+](=O)[O-])cc(C(C)(C)C)cc1[N+](=O)[O-]` (centres undefined) has a melting point of 60 °C.
For `CS(=O)(=O)c1ccccc1C(=O)O`, the melting point was 139 °C.
`CCCCCCCC(C)=O` gave a melting point of -7.5 °C.
Compound `O=C1NC(=S)NC(=O)C1=Cc1ccc(-c2ccc(Cl)cc2)o1` has a melting point of 280 °C.
For `COC(=O)C1=C(C(=O)OC)CC2=C(CC3=C(C2)CC(C(=O)OC)=C(C(=O)OC)C3)C1`, the melting point was 260 to 262 °C.
In the case of `CCCC(C)(C)C(=O)Nc1ccc(Cl)cc1`, the melting point is reported as 87.5 °C.
`O=Cc1cccn1-c1ccc([N+](=O)[O-])cc1` showed a melting point of 166 to 169 °C.
`CS(=O)(=O)Nc1cccc(C=O)c1` gave a melting point of 146 to 147 °C.
In the case of `CC(=O)N1C(=O)Cc2cc3c(cc21)N(C(C)=O)C(=O)C3`, the melting point is reported as 295 °C.
Work on `OC(c1ccc(Cl)cc1)(c1ccc(Cl)cc1)c1ccc(Cl)cc1` yielded a melting point of 95.5 °C.
`CCNC(=S)Nc1ccccc1` showed a melting point of 102 to 104 °C.
`Nc1ccc(CCc2ccc(N)cc2)cc1` gave a melting point of 137 °C.
`Fc1ccc(F)cc1` showed a melting point of -13 °C.
For `O=C(O)CCSC=Cc1ccccc1`, the melting point was 117 to 120 °C.
`CCOc1ccc(Cl)cc1` gave a melting point of 21 °C.
With `CCN(CC)S(=O)(=O)c1ccc(C(=O)O)cc1` the melting point was 193 °C.
For `CC(C)[Si](Cl)(Cl)Cl`, the melting point was -87.7 °C.
`CC(C)(C)[Si](C)(C)ON` gave a melting point of 64 °C.
In the case of `Cn1nccc1N`, the melting point is reported as 73 to 76 °C.
With `C#CC1(O)CCC2C3CCC4=CC(=O)CCC4(C)C3CCC21C` (centres undefined) the melting point was 269 °C.
`CCOC(=O)CNc1nc(N)n[nH]1` gave a melting point of 177 to 179 °C.
With `CCCCCn1c(O)nnc1S` the melting point was 146 to 149 °C.
`Cc1ccsc1C` showed a melting point of -49 °C.
Work on `O=C(C(Cl)Cl)C(Cl)(Cl)Cl` yielded a melting point of 2.1 °C.
Work on `COc1ccccc1C1Nn2c(nnc2-c2cccnc2)S1` (centres undefined) yielded a melting point of 221 °C.
Work on `NC(=NO)c1ccccc1OC(F)(F)F` yielded a melting point of 99 to 101 °C.
Work on `CC(CN)C(=O)O` (racemic) yielded a melting point of 177 to 181 °C.
`CCCCOCC` gave a melting point of -124 °C.
With `CCC/C=C/CCCCCC` the melting point was -63.7 °C.
With `COC(=O)C=Cc1ccc(OC)c(OC2CCCC2)c1` the melting point was 54 to 57 °C.
With `ON=Cc1cccc(Br)c1` the melting point was 72 °C.
Compound `CCn1c(C)nc2ccccc21` has a melting point of 51 °C.
In the case of `OCc1cccc(OCc2ccccc2)c1`, the melting point is reported as 49 °C.
Compound `O=C1CCCc2c1c1c3c(ccc4c3c2CCC4)CCC1` has a melting point of 146 to 149 °C.
`OCCNc1nccnc1Cl` gave a melting point of 54 to 58 °C.
`CC(Oc1ccc(Oc2nc3ccc(Cl)cc3o2)cc1)C(=O)O` (centres undefined) showed a melting point of 158 °C.
`c1ccc(CC(=NNc2cccc(NN=C(Cc3ccccc3)c3ccccc3)c2)c2ccccc2)cc1` showed a melting point of 164 °C.
`C=CCOc1ccc2c(=O)cc(C(=O)OCC)oc2c1CCC` showed a melting point of 84 to 86 °C.
Work on `Nc1nc(CC(=O)O)cs1` yielded a melting point of 118 °C.
`CCCCCCCCCCCCCc1ccccc1` showed a melting point of 10 °C.
`Cc1nnsc1-c1onc(C)c1C(=O)Cl` showed a melting point of 66 to 70 °C.
For `Nc1cc(F)c(F)c(Br)c1`, the melting point was 68 °C.
`O=C(O)c1cc(O)c(Br)c(O)c1` showed a melting point of 270 °C.
`NC(CCO)c1ccccc1` (centres undefined) gave a melting point of 70 to 77 °C.
With `CC1=CCC2CC1C2(C)C` (racemic) the melting point was -55 °C.
In the case of `Cc1ccc(F)cc1N`, the melting point is reported as 39 °C.
`Cc1oc(C)c(S(=O)(=O)NCc2cccs2)c1C(=O)O` showed a melting point of 167 to 169 °C.
In the case of `C=C(C)CNC(=S)NC`, the melting point is reported as 60 to 64 °C.
Work on `O=C1Nc2ccc(Cl)cc2C1=O` yielded a melting point of 242 to 250 °C.
Work on `Cc1ccc(-c2ccccc2)cc1N` yielded a melting point of 58 to 60 °C.
For `O=C(Cl)c1sccc1Br`, the melting point was 65 to 67 °C.
`O=C1CCC(NC(=O)OCc2ccccc2)CC1` showed a melting point of 82 °C.
`N#CCc1ccc(Cc2ccccc2)cc1` showed a melting point of 35.5 °C.
`CCCCCCN1CC(C(=O)OC)CC1=O` (centres undefined) gave a melting point of 4 °C.
`OCc1ccc(-c2nccs2)cc1` showed a melting point of 94 to 97 °C.
`CSc1nc(N)c(C#N)s1` showed a melting point of 207 to 210 °C.
Compound `COc1ccc(C=CC(=O)c2ccc(O)cc2)cc1` has a melting point of 188 °C.
For `O=Cc1cccc(NS(=O)(=O)c2ccccc2)c1`, the melting point was 104 to 108 °C.
`O=C(O)c1cccnc1Sc1ccccc1` showed a melting point of 165 to 167 °C.
`CC(=O)c1ccc(NC(=O)C(F)(F)C(F)(F)C(F)(F)C(F)(F)C(F)(F)C(F)(F)C(F)(F)C(F)(F)F)cc1` gave a melting point of 155 °C.
For `CNc1ccc2cc(OC)[nH]c2c1`, the melting point was 165 °C.
In the case of `O=C(Cl)c1cc2ccccc2o1`, the melting point is reported as 54 to 55 °C.
Compound `CSc1nn2c(=O)c(C)nnc2s1` has a melting point of 196 °C.
In the case of `CCc1ccccc1-n1c(C)nc2ccccc2c1=O`, the melting point is reported as 81 °C.
`COc1cc2c(cc1OC)Cc1cc(OC)c(OC)cc1Cc1cc(OC)c(OC)cc1C2` showed a melting point of 222 to 228 °C.
Compound `CCOC(=O)c1c(N)sc2c1CCCC2` has a melting point of 116 °C.
With `CC12CCC3C(CCC4(C)CC(=O)CCC34C)C1CCC2=O` (centres undefined) the melting point was 148 °C.
In the case of `O=[N+]([O-])c1cc2c(cc1CO)OCO2`, the melting point is reported as 123 °C.
Work on `O=Cc1cnc2ccccc2c1` yielded a melting point of 68 to 71 °C.
With `O=[N+]([O-])c1cc(S(=O)(=O)Nc2ccccc2)ccc1Nc1ccccc1` the melting point was 156 °C.
